Values of other authors in patent US11389549B2, “Diagnosis-treatment integrated nano-probe for 19F-MR/fluorescence multi-mode molecular imaging and drug-loading and preparation method and application of nano-probe” (Harbin Medical University, priority 2019, dated 2022).

solubility in water (water): insoluble to water
Structure (SMILES): C=CC(=O)Nc1cc(Nc2nccc(-c3cn(C)c4ccccc34)n2)c(OC)cc1N(C)CCN(C)C [AZD9291]
solubility in organic solvents (DMSO and other organic solvents): soluble to Dimethyl Sulfoxide (DMSO) and other organic solvents merely
